Like-named read-outs stand apart in the source and are kept apart here.
Experiments:
[1] = Stability study at 25° C./60% RH, 40° C./75% RH and 60° C. (XRPD, HPLC purity, impurity tracking); settings: for XRPD: number = sodium salt XRPD Pattern; for RRT 0.801 / RRT 0.959 / RRT 1.000 (HBI-3808) / RRT 1.025 (Isomer of HBI-3808) / RRT 1.767 / Total Impurities / RRT 1.932: impurity tracking
Excerpt: Stability of HBI-3808 Sodium Salt Pattern 2 was studied over 13 weeks.
Table 2F presents impurity tracking results from a 13-week stability study of HBI-3808 sodium salt of Pattern 2. […]

[2] = Dynamic vapor sorption (DVS) analysis; assay type: physicochemical
Description: GC analysis indicated residual solvent contents of 2847 ppm methanol; and 27 ppm TBME. […] No residual methanol or TBME was detected due to signal over-lap. […] TG-DSC analysis indicated two weight losses. The first weight loss of 2.3 wt. % was observed between 20-170° C. […] In the DSC thermogram, three endothermic events were observed (FIG. 17I). […] FT-IR (FIG. 17J) and Raman spectra (FIG. 17K) were recorded for reference. […] XRPD pattern of the ethanolamine salt was retained post-DVS (FIG. 17N). […] However, at the end of the experiment the solids on the microscope slide had discolored (FIG. 17O).

[3] = Hydration study in methanol/water aw 0.1, 0.5 and 0.9; assay type: physicochemical
Excerpt: Hydration studies of ethanolamine salt.

[4] = Varying humidity (VH)-XRPD; assay type: physicochemical
Description: During the sorption phase, sodium salt Pattern 2 was observed between 40-60% RH. […] A mixture of sodium salt Pattern 2 and 5 was also observed at 80% RH. […] During the second desorption, from 90% RH to 40% RH, sodium salt Pattern 5 was maintained.
VH-XRPD analysis was carried out between 40-0% RH (FIG. 5L).

[5] = for HPLC Conc./: based on free acid
Excerpt: pH-dependent solubility of the HBI- 3808 sodium salt of Pattern 2 was studied.
pH dependent solubility of the HBI- 3808 sodium salt of Pattern 5 was studied.

[6] = 40° C./75% RH (open vial), 1 Week
[7] = 40° C./75% RH (open vial), 2 Weeks
[8] = 40° C./75% RH (open vial), 4 Weeks

HPLC/ % area ([1]; 25° C./60% RH (open vial), 1 Week): 96.4 % area
XRPD ([1]; 25° C./60% RH (open vial), 1 Week, * Traces of sodium salt Pattern 2): 5
HPLC/ % area ([1]; 25° C./60% RH (open vial), 2 Weeks): 96.7 % area
XRPD ([1]; 25° C./60% RH (open vial), 2 Weeks, * Traces of Pattern 2): 5
HPLC/ % area ([1]; 25° C./60% RH (open vial), 4 Weeks): 96.3 % area
XRPD ([1]; 25° C./60% RH (open vial), 4 Weeks, * Traces of Pattern 2): 5
HPLC/ % area [1, 6]: 96.7 % area
XRPD [1, 6]: 5
HPLC/ % area [1, 7]: 97.5 % area
XRPD [1, 7]: 5
HPLC/ % area [1, 8]: 96.6 % area
XRPD [1, 8]: 5
HPLC/ % area ([1]; 60° C. (closed vial), 1 Week): 96.1 % area
XRPD ([1]; 60° C. (closed vial), 1 Week): 5
HPLC/ % area ([1]; 60° C. (closed vial), 2 Weeks): 97.3 % area
XRPD ([1]; 60° C. (closed vial), 2 Weeks): 5
HPLC/ % area ([1]; 60° C. (closed vial), 4 Weeks): 96.1 % area
XRPD ([1]; 60° C. (closed vial), 4 Weeks): 5
XRPD pattern over the stability study ([1]; all conditions, 4 weeks (Pattern 5), 13 weeks (ethanolamine salt)): Sodium salt Pattern 5 was retained
RRT 0.801 ([1]; 25° C./60% RH, 1 week): 0.37 % area
RRT 0.959 ([1]; 25° C./60% RH, 1 week): 0.14 % area
RRT 1.000 (HBI-3808) ([1]; 25° C./60% RH, 1 week): 96.39 % area
RRT 1.025 (Isomer of HBI-3808) ([1]; 25° C./60% RH, 1 week): 2.67 % area
RRT 1.767 ([1]; 25° C./60% RH, 1 week): 0.43 % area
Total Impurities ([1]; 25° C./60% RH, 1 week): 3.61 % area
RRT 0.801 ([1]; 25° C./60% RH, 2 weeks): 0.30 % area
RRT 1.000 (HBI-3808) ([1]; 25° C./60% RH, 2 weeks): 96.96 % area
RRT 1.025 (Isomer of HBI-3808) ([1]; 25° C./60% RH, 2 weeks): 2.74 % area
Total Impurities ([1]; 25° C./60% RH, 2 weeks): 3.04 % area
RRT 0.801 ([1]; 25° C./60% RH, 4 weeks): 0.26 % area
RRT 0.959 ([1]; 25° C./60% RH, 4 weeks): 0.13 % area
RRT 1.000 (HBI-3808) ([1]; 25° C./60% RH, 4 weeks): 96.33 % area
RRT 1.025 (Isomer of HBI-3808) ([1]; 25° C./60% RH, 4 weeks): 2.76 % area
RRT 1.767 ([1]; 25° C./60% RH, 4 weeks): 0.30 % area
RRT 1.932 ([1]; 25° C./60% RH, 4 weeks): 0.21 % area
Total Impurities ([1]; 25° C./60% RH, 4 weeks): 3.67 % area
RRT 0.801 ([1]; 40° C./75% RH, 1 week): 0.34 % area
RRT 0.959 ([1]; 40° C./75% RH, 1 week): 0.13 % area
RRT 1.000 (HBI-3808) ([1]; 40° C./75% RH, 1 week): 96.67 % area
RRT 1.025 (Isomer of HBI-3808) ([1]; 40° C./75% RH, 1 week): 2.52 % area
RRT 1.767 ([1]; 40° C./75% RH, 1 week): 0.34 % area
Total Impurities ([1]; 40° C./75% RH, 1 week): 3.33 % area
RRT 0.801 ([1]; 40° C./75% RH, 2 weeks): 0.37 % area
RRT 1.000 (HBI-3808) ([1]; 40° C./75% RH, 2 weeks): 97.47 % area
RRT 1.025 (Isomer of HBI-3808) ([1]; 40° C./75% RH, 2 weeks): 2.16 % area
Total Impurities ([1]; 40° C./75% RH, 2 weeks): 2.53 % area
RRT 0.801 ([1]; 40° C./75% RH, 4 weeks): 0.42 % area
RRT 0.959 ([1]; 40° C./75% RH, 4 weeks): 0.16 % area
RRT 1.000 (HBI-3808) ([1]; 40° C./75% RH, 4 weeks): 96.60 % area
RRT 1.025 (Isomer of HBI-3808) ([1]; 40° C./75% RH, 4 weeks): 2.34 % area
RRT 1.767 ([1]; 40° C./75% RH, 4 weeks): 0.25 % area
RRT 1.932 ([1]; 40° C./75% RH, 4 weeks): 0.22 % area
Total Impurities ([1]; 40° C./75% RH, 4 weeks): 3.40 % area
RRT 0.801 ([1]; 60° C., 1 week): 0.28 % area
RRT 0.959 ([1]; 60° C., 1 week): 0.15 % area
RRT 1.000 (HBI-3808) ([1]; 60° C., 1 week): 96.23 % area
RRT 1.025 (Isomer of HBI-3808) ([1]; 60° C., 1 week): 2.94 % area
RRT 1.767 ([1]; 60° C., 1 week): 0.40 % area
Total Impurities ([1]; 60° C., 1 week): 3.77 % area
RRT 0.801 ([1]; 60° C., 2 weeks): 0.38 % area
RRT 1.000 (HBI-3808) ([1]; 60° C., 2 weeks): 97.33 % area
RRT 1.025 (Isomer of HBI-3808) ([1]; 60° C., 2 weeks): 2.29 % area
Total Impurities ([1]; 60° C., 2 weeks): 2.67 % area
RRT 0.801 ([1]; 60° C., 4 weeks): 0.37 % area
RRT 0.959 ([1]; 60° C., 4 weeks): 0.19 % area
RRT 1.000 (HBI-3808) ([1]; 60° C., 4 weeks): 96.13 % area
RRT 1.025 (Isomer of HBI-3808) ([1]; 60° C., 4 weeks): 2.71 % area
RRT 1.767 ([1]; 60° C., 4 weeks): 0.36 % area
RRT 1.932 ([1]; 60° C., 4 weeks): 0.23 % area
Total Impurities ([1]; 60° C., 4 weeks): 3.87 % area
RRT 0.801 ([1]; T = 0): 0.35 % area
RRT 1.000 (HBI-3808) ([1]; T = 0): 96.83 % area
RRT 1.025 (Isomer of HBI-3808) ([1]; T = 0): 2.66 % area
RRT 1.767 ([1]; T = 0): 0.17 % area
Total Impurities ([1]; T = 0): 3.17 % area
input purity by HPLC ([1]; input material of the stability study (baseline)): 96.8 % area
reversibility of mass uptake/loss ([2]; Pattern 2: second DVS cycle): reversible
water (mass) uptake ([2]; at 80% RH/25° C. (Pattern 2: second DVS cycle)): 0.8 wt. %
XRPD of solids recovered at the end of the experiment [3]: consistent with sodium salt Pattern 2
XRPD pattern during desorption ([4]; 40-0% RH, 30° C.): no change in diffractogram
final Measured pH ([5]; FaSSGF): 9.34
HPLC Conc./ ([5]; FaSSGF): >150.33 mg/mL
concentration ([5]; pH 1.2): < 1000 ng/mL
HPLC Conc./ ([5]; target pH 1.2 chloride buffer, start 200 mg/mL (ethanolamine salt 100 mg/mL)): <0.001 mg/mL
HPLC Conc./ ([5]; target pH 3.0 acetate buffer): <0.001 mg/mL
HPLC Conc./ ([5]; target pH 4.0 acetate buffer): <0.001 mg/mL
HPLC Conc./ ([5]; target pH 6.8 phosphate buffer): 0.25 mg/mL
HPLC Conc./ ([5]; target pH 8.0 phosphate buffer): 12.84 mg/mL
Structure (SMILES): CC1CCC2(C(=O)[O-])CCC3(C)C(=CCC4C5(C)CC(O)C(O)C(C)(CO)C5CCC43C)C2C1(C)O.[Na+] (stereo not shown) [HBI-3808 sodium salt of Pattern 5, sodium salt of 23-hydroxytormentic acid]
change in chemical purity by HPLC over the stability study ([1]; all conditions (25° C./60% RH; 40° C./75% RH; 60° C.), 13 weeks (Pattern 5: 4 weeks)): no significant decrease in chemical purity
XRPD of recovered material post-DVS [2]: consistent with HBI-3808 sodium salt of Pattern 5
XRPD pattern / form stability over relative humidity ([4]; 0-90% RH): stable to relative humidity between 90-0% RH

— patent US20250326785A1, “SODIUM SALT AND ETHANOLAMINE SALT OF 23-HYDROXYTORMENTIC ACID” (HUYABIO International, LLC, priority 2024, published 2025)
